Series [1] can be described thus: In vitro metabolic incubation with human liver microsomes, UHPLC-HRMS metabolite profiling. The series is classed as in vitro ADME. As to conditions: 37 °C, 2 h. The procedure:
(§1) Mixed-gender human liver microsomes (10-Donor Pool, total protein concentration of 20 mg/mL) and mixed-gender human skin S9 (3-Donor Pool, total protein concentration of 1.89 mg/mL) were purchased from BioreclamationIVT (Westbury, NY, USA). Phosphate buffered saline (PBS, pH 7.2~7.4) was obtained from Sangon Biotech Co., Ltd. (Shanghai, China). BPC-157 (HPLC purity > 99%) and (Deamino-cysl, val4, D-arg8)-Vasopressin (DCVDV, internal standard, ISTD) were purchased from Alta Scientific Co., Ltd. (Tianjin, China). ^13C6,^15N2-BPC-157 (labeled BPC-157, HPLC purity > 98%) was purchased from Synpeptide Co., Ltd. (Nanjing, China). BPC-157 (2–15) free acid, BPC-157 (1–13) free acid, BPC-157 (2–13) free acid, BPC-157 (1–12) free acid, BPC-157 (3–15) free acid, BPC-157 (1–8) free acid, and BPC-157 (2–8) free acid were synthesized by Alta Scientific Co., Ltd. (Tianjin, China). MgCl2 was from Beyotime Biotechnology (Shanghai, China). Nicotinamide adenine dinucleotide phosphate (NADPH) was purchased from Vetec (Shanghai, China). Acetonitrile (ACN), methanol (MeOH), and formic acid (FA) were of LC-MS grade and were obtained from Thermo Fisher Scientific (San Jose, CA, USA). Milli-Q purified water (MerckMillipore, Vimodrone, Milan, Italy) was used for sample preparation, reference material dilution, and LC mobile phase preparation. […]
(In general: Liver microsomes are vesicles of endoplasmic reticulum, rich in cytochrome P450 enzymes.)

Series [2] is described as follows: In vitro metabolic incubation with human skin S9, UHPLC-HRMS metabolite profiling. The conditions noted are these: human skin S9 0.189 mg/mL, 37 °C, 2 h. The series is classed as in vitro ADME. As for the experimental part: as §1
A short description of series [3]: in vitro plasma metabolism. The conditions noted are these: cited from earlier work.
The nature of series [4]: mixed-gender human skin S9 (3-Donor Pool) in PBS. As to conditions: 37 °C, up to 2 h.
Series [5] in a line: mixed-gender human liver microsomes (10-Donor Pool) in PBS with MgCl2 and NADPH. The conditions noted are these: 37 °C, up to 2 h.

“Also recorded” adds a separate entry of the source. Ends that are not written are not given here.

Take “EPPPGKPADDAG [BPC-157 (2–13) free acid (M3), BPC-157 (2–13) free acid]”: in series [1] (human liver microsomes 1 mg/mL, NADPH, UHPLC-HRMS), the “Detection of metabolite in the human liver microsome incubation system (in words)” value is on record as “only detected in the human liver microsome incubation system”. “EPPPGKPADDAGL [BPC-157 (2–14) free acid (M5), BPC-157 (2–14) free acid]”: in series [2], the “Detection of metabolite in the human skin S9 incubation system (in words)” value is on record as “only detected in the human skin S9 incubation system”.

Take “EPPPGKPADDAGLV [BPC-157 (2–15) free acid (M8), BPC-157 (2–15) free acid]”: the “Relative response of metabolites (relative abundance)” value in series [1] (both incubation systems (human liver microsomes and human skin S9), relative to the most abundant metabolite M8) is on record as “most abundant metabolite in both incubation systems”.

With GEPPPGKPADDAGLV [BPC-157], the fragment found result in series [3] is listed as “BPC-157 (2–15) free acid (M8), major; also recorded: BPC-157 (2–13) free acid”; in series [4], “BPC-157 (1–14) free acid (M6), GEPPPGKPADDAGL; also recorded: BPC-157 (2–8) free acid (M1), EPPPGKP, major; also recorded: BPC-157 (1–8) free acid (M2), GEPPPGKP, major; also recorded: BPC-157 (1–13) free acid (M4), GEPPPGKPADDAG, major”; in series [5], “BPC-157 (1–14) free acid (M6), GEPPPGKPADDAGL; also recorded: BPC-157 (2–8) free acid (M1), EPPPGKP, major; also recorded: BPC-157 (1–8) free acid (M2), GEPPPGKP, major; also recorded: BPC-157 (1–13) free acid (M4), GEPPPGKPADDAG, major”. In addition, the cleaved bond entry in series [4] is given as “glycine1-E2, major”; in series [5], “glycine1-E2, major”. In the case of GEPPPGKPADDAGLV [labeled BPC-157], in series [5], the fragment found entry is listed as “labeled M9”.

In the case of “GKPADDAGLV [BPC-157 (6–15) free acid (M7), BPC-157 (6–15) free acid]”, the “Detection of metabolite in the human skin S9 incubation system (in words)” value in series [2] is given as “only detected in the human skin S9 incubation system”.

The values above are taken from article PMC10650108 (Molecules, 2023).
